{
  "source": "paper PMC12473159",
  "about": "“A Comprehensive Functional Analysis of OsPEAMT1 and OsPEAMT2 Genes in Rice (Oryza sativa L. ssp. japonica)” (Plants, 2025)",
  "key": {"OsPEAMT2": {"target": "T1, OsPEAMT2 (Oryza sativa, UniProt A0A0P0WPX7)", "T1 construct": "gene Os05g0548900; forward primer encodes MDAVAAN", "T1 sequence (A0A0P0WPX7 1-495)": "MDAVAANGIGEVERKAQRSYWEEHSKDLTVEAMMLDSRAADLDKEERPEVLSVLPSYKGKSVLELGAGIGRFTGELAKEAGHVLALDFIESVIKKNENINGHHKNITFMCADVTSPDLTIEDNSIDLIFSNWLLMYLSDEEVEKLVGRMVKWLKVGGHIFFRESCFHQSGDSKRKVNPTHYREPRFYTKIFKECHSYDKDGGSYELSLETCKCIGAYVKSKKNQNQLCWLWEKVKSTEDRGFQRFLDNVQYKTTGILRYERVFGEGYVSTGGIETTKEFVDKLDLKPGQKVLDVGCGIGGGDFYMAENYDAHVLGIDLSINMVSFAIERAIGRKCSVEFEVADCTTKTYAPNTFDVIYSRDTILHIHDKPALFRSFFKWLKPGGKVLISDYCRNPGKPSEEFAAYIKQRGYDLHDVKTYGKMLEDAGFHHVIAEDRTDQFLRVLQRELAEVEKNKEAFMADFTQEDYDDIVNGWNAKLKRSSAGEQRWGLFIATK", "assay": "LC-MS/MS of phosphocholine formed", "assay_type": "biochemical", "details": "200 uM P-EA, 200 uM S-adenosyl-L-methionine, HEPES-KOH pH 9.9, 2 mM EDTA, 30 C, 30 min"}, "OsPEAMT1": {"target": "T2, OsPEAMT1 (Oryza sativa, UniProt Q6QA26)", "T2 construct": "gene PEAMT", "T2 sequence (Q6QA26 20-499)": "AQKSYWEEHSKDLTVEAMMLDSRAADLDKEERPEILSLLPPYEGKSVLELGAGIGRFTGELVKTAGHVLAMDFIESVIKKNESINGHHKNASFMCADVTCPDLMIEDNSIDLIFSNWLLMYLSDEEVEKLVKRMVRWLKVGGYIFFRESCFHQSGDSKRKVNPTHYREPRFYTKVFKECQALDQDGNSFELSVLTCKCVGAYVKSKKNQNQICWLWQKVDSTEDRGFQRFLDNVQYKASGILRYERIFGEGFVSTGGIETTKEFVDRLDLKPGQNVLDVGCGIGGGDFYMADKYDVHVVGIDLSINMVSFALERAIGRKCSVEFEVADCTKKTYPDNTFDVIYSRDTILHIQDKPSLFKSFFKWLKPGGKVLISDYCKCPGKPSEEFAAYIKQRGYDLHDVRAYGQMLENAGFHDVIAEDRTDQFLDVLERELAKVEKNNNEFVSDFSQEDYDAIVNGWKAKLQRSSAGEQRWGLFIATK", "assay": "LC-MS/MS of phosphocholine formed", "assay_type": "biochemical", "details": "200 uM P-EA, 200 uM S-adenosyl-L-methionine, HEPES-KOH pH 9.9, 2 mM EDTA, 30 C, 30 min"}},
  "data": [
    {"smiles": "NCCOP(=O)(O)O", "note": "[P-EA]", "values": [
      {"measurement": "LC-MS/MS of phosphocholine formed", "setting": "OsPEAMT2", "value": "both recombinant OsPEAMT1 and OsPEAMT2 have the activity to catalyze substrate P-EA producing P-Cho"},
      {"measurement": "LC-MS/MS of phosphocholine formed", "setting": "OsPEAMT1", "value": "both recombinant OsPEAMT1 and OsPEAMT2 have the activity to catalyze substrate P-EA producing P-Cho"}
    ]}
  ]
}
